This passage reports IC50 and GI50 results from US12037346B2, “Amino-substituted heteroaryls for treating cancers with EGFR mutations” (Nuvalent, Inc., priority 2021, dated 2024).

What is called IC50 is the concentration that inhibits the measured activity by half. The low end stands for greater potency, the high end for weaker potency.

What all share (format): cell-based
Assay [1] deals with NCI-H1781 cells (HER2-A775_G776insV-G776C). Put plainly: Cell proliferation assay (CellTiter-Glo), NCI-H1781. As to conditions: first inflexion of biphasic curve. The protocol: (§1) Besides Ba/F3s, two commercially available cell lines were also used. NCI-H1781 is a HER2 exon20 insertion cell line bearing HER2-A775_G776insV-G776C. A431 bears amplification of the wild-type EGFR gene.
(§2) Ba/F3 cells were plated at 1,000 cells/well (40 μL), or NCI-H1781 or A431 cells were plated at 2,000 cells/well (40 μL), in a 384-well plate for 1 day. Test compounds (40 nL) were then added in a 3-fold dilution series using the TECAN EV0200 liquid handler and incubated for 48 hours (“2 days”), 72 hours (“3 days”), or 48 hours followed by renewal of compound solutions and further incubation for 72 hours (“2 days/3 days”). The 72-hour assay was necessary for NCI-H1781 cells, which are slow-growing, and the resupply of fresh compounds on day 3 obviated the potential confounding effects arising from compound degradation in cell media over 72 hours. Plates were equilibrated at room temperature for 15 minutes followed by addition of 40 μL CellTiter-Glo reagent (Promega). Luminescence was measured on a plate reader. Half-maximal inhibitory concentration (IC50) was calculated from percent inhibition and inhibitor concentration using four-parameter logistic regression. […] In these cases, the regression curve was drawn only for the first inflexion to accurately measure on-target growth inhibitory effect.
(§3) Ba/F3, NCI-H1781, and A431 proliferation is driven by the oncogenes in the same way that cancer cell proliferation in humans is driven by the expression of equivalent oncogenes.
(ATP-based viability assays read luminescence as a measure of living cells.)

The subject of assay [2] is A431 cells (amplification of the wild-type EGFR gene), phospho-ERK Thr202/Tyr204. Kind of assay: Cellular phosphorylation assay, pERK (phospho-ERK Thr202/Tyr204 AlphaLISA) in A431. As to conditions: Homo sapiens, A-431, compound incubated for 5 hours. The protocol: as §1
(§4) Ba/F3 cells were plated at 50,000 cells/well (40 μL), or NCI-H1781 cells or A431 cells were plated at 12,500 cells/well (40 μL), in a 384-well plate for 1 day. Test compounds (40 nL) were then added in a 3-fold dilution series using the TECAN EV0200 liquid handler and incubated for 5 hours. Only for pEGFR analysis in A431, the cells were briefly stimulated with EGF (30 ng/mL) for 15 minutes. Media were removed using Apricot Designs. Phosphoproteins were analyzed using the phospho-EGFR Tyr1068 AlphaLISA kit (“pEGFR”; PerkinElmer #ALSU-PEGFR-B10K;) phospho-ERK Thr202/Tyr204 AlphaLISA kit (“pERK”; PerkinElmer #ALSU-PERK-A10K) or the phospho-ErbB2 Tyr1221/1222 AlphaLISA kit (“pHER2”; PerkinElmer #ALSU-PEB2-A10K;) according to the manufacturer's instructions. Briefly, cells were lysed with lysis buffer (10 μL) containing protease-inhibitor and phosphatase-inhibitor cocktails. The lysates were transferred into a new optical plate, incubated with the acceptor mix (5 μL) for 1.5-2 hours at room temperature in darkness, and then mixed with the donor mix (5 μL) overnight in darkness. Fluorescence was measured on a plate reader using the appropriate AlphaLISA settings. Half-maximal inhibitory concentration (IC50) was calculated from percent inhibition and inhibitor concentration using four-parameter logistic regression. […]

For assay [3], the target named is Ba/F3 HER2-YVMA cells (HER2-A775_G776insYVMA) (Homo sapiens, UniProt P04626, DUP772-775, cells depend on it). Put plainly: Cell proliferation assay (CellTiter-Glo), Ba/F3 HER2-YVMA. The conditions noted are these: read-out: Ba/F3 HER2-YVMA cell proliferation IC50. The protocol:
The gene encoding HER2-A775_G776insYVMA (“HER2-YVMA”) was synthesized at GeneRay, cloned into the retroviral construct pMSCV-puro (Biovector), and packaged into retroviral particles. The virus was used to infect Ba/F3 cells (RIKEN) at multiplicity of infection=1 or 10 for 1 day. Infected cells were rescued in media (RPMI-1640 with 10% fetal bovine serum and 1% streptomycin and penicillin) supplemented with mouse IL-3 (10 ng/mL) for 2 days, and stable cell lines were selected by IL-3 withdrawal and puromycin (0.8 μg/mL) for 7 days. Monoclones were selected by single-cell dilution in IL-3-free medium containing puromycin ([…]). Transformation of desired genes was confirmed by Sanger sequencing and western blot using the following antibody: HER2 (CST #2242).
as §2, §3

The target in assay [4] is T1, wild-type EGFR (A431 cells) (Homo sapiens, UniProt P00533).
T1 construct: A431 bears amplification of the wild-type EGFR gene; endogenous in cells; host or cells: A431
Kind of assay: Cellular phosphorylation assay, pEGFR (phospho-EGFR Tyr1068 AlphaLISA) in A431. As to conditions: compound incubated for 5 hours, EGF (30 ng/mL) for 15 minutes. The protocol: as §1, §4

SMILES strings stand for the structures.

Ba/F3 HER2-YVMA cells (HER2-A775_G776insYVMA), sequence (P04626 with tags, fused parts or gaps DUP772-775): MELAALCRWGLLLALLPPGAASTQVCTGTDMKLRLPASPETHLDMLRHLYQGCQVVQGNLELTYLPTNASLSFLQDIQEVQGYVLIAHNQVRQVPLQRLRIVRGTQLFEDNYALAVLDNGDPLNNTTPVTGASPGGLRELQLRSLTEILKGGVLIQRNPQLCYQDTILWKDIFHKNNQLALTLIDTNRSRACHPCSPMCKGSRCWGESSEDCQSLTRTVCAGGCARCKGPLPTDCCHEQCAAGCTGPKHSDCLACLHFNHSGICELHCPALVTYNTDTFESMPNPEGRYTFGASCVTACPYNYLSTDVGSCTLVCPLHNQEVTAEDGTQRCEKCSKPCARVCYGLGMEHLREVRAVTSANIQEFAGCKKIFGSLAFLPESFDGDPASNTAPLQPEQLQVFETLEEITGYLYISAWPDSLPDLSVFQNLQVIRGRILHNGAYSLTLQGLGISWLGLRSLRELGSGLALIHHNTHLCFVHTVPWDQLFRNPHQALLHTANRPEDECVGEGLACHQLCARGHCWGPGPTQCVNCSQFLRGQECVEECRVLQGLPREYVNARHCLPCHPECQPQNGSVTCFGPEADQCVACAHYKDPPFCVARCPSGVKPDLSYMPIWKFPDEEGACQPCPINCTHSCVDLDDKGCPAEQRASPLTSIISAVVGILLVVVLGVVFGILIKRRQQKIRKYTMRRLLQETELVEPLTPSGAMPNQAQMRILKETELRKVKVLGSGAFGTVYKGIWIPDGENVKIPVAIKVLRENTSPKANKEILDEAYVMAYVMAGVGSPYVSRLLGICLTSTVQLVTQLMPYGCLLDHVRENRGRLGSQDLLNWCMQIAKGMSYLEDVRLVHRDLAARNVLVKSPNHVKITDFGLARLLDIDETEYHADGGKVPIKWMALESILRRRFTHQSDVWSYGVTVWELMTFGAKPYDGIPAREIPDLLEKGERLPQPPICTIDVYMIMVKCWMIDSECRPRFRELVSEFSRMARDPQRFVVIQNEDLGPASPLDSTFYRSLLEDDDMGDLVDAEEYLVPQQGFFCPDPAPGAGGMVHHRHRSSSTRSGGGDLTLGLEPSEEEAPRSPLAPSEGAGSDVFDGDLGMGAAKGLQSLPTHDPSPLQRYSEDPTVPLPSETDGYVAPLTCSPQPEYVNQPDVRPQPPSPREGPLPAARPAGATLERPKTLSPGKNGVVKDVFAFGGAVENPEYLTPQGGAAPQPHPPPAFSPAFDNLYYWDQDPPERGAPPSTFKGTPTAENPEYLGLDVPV
T1 sequence (P00533 25-1210): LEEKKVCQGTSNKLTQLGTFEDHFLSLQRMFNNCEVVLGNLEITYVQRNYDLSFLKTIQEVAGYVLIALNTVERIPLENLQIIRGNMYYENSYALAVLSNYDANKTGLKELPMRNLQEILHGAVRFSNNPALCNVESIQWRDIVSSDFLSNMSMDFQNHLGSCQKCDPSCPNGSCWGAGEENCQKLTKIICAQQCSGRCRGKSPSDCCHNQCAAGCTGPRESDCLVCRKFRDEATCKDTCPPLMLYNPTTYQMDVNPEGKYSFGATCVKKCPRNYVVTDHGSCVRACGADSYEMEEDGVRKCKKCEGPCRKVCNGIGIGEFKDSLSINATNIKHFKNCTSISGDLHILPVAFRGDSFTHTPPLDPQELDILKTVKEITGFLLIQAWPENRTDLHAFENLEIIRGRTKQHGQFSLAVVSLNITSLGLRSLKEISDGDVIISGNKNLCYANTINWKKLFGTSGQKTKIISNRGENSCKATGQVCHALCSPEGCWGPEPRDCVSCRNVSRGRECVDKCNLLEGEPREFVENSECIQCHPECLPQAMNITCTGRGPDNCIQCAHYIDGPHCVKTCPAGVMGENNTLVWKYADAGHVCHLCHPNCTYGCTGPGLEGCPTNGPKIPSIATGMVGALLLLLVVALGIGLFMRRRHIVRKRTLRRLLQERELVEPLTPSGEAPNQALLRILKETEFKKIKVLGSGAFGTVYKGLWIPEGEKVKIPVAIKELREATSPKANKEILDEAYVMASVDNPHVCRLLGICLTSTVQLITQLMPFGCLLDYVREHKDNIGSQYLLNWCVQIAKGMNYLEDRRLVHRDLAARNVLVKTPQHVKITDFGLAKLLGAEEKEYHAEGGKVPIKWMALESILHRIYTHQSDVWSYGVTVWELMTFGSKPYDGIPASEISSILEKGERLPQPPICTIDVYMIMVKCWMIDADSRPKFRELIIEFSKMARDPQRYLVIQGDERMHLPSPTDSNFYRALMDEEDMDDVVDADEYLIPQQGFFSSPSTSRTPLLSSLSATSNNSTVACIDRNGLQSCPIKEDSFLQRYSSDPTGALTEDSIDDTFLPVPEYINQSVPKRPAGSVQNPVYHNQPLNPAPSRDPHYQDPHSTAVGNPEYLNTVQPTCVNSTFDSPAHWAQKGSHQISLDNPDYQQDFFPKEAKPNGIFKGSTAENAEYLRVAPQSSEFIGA

On to `C=CC(=O)N1CCN(c2ncc3ncnc(Nc4ccc(Oc5ccn6ncnc6c5)c(C)c4F)c3n2)[C@H](C)[C@@H]1C` (relative stereo) [Example 40], for which the IC50 in assay [1], in assay [2] and in assay [4] was below 100 nM in each case. Also, the GI50 in assay [3] was below 100 nM.

Consider `C=CC(=O)N1CCN(c2ccc3ncnc(Nc4ccc(Oc5ccn6ncnc6c5)c(C)c4)c3n2)C[C@H]1C` [Example 6], for which the IC50 in assay [1] was below 100 nM; in assay [2], 100 to 500 nM; in assay [4], 100 to 500 nM. Further, the GI50 in assay [3] is below 100 nM.

On to `Cc1cc(Nc2ncnc3ccc(N4CCN(C(=O)/C=C/CN(C)C)CC4)nc23)ccc1Oc1ccn2ncnc2c1` [Example 7], for which the IC50 in assay [1] was below 100 nM; in assay [2], 100 to 500 nM; in assay [4], 100 to 500 nM. Besides, in assay [3], the GI50 was below 100 nM.

Take `C=CC(=O)N1CCN(c2ccc3ncnc(Nc4ccc(Oc5ccn6ncnc6c5)c(C)c4)c3n2)C(=O)C1` [Example 8]: the figures for the IC50 in assay [1], in assay [2] and in assay [4] were below 100 nM, at least 1000 nM and at least 1000 nM, respectively. In assay [3], the GI50 was below 100 nM.

Regarding `C=CC(=O)N1CC=C(c2ccc3ncnc(Nc4cc(C)c(Oc5ccn6ncnc6c5)cc4F)c3n2)CC1` [Example 11], the IC50 in assay [1] was 100 to 500 nM; in assay [4], at least 1000 nM. Further, in assay [3], the GI50 was below 100 nM.

As for `C=CC(=O)N1CC=C(c2ccc3ncnc(Nc4ccc(Oc5cc(OC)n6ncnc6c5)c(C)c4)c3n2)CC1` [Example 15], the IC50 in assay [1] is 100 to 500 nM; in assay [2], at least 1000 nM; in assay [4] it was at least 1000 nM. In assay [3], the GI50 is below 100 nM.

Take `C=CC(=O)N1CC=C(c2ccc3ncnc(Nc4ccc(Oc5cc(Cl)n6ncnc6c5)c(C)c4)c3n2)CC1` [Example 16]: the figures for the IC50 in assay [1], in assay [2] and in assay [4] were 100 to 500 nM, 500 to 1000 nM and 500 to 1000 nM, respectively. Also, in assay [3], the GI50 is below 100 nM.

`C=CC(=O)N1CC=C(c2ccc3ncnc(Nc4ccc(Oc5cc(C)n6ncnc6c5)c(C)c4)c3n2)CC1` [Example 17]: the concentration for half-maximal inhibition (IC50) in assay [1] was below 100 nM; in assay [2] it was at least 1000 nM; in assay [4], at least 1000 nM. Moreover, the GI50 in assay [3] was below 100 nM.

In the case of `C=CC(=O)N1CCN(c2ccc3ncnc(Nc4ccc(Oc5ccn6ncnc6c5)c(C)c4)c3c2OC)CC1` [Example 20], the IC50 in assay [1] was below 100 nM; in assay [2] it was at least 1000 nM; in assay [4] it was at least 1000 nM. For the same compound, the GI50 in assay [3] was below 100 nM.

For the compound `C=CC(=O)N1CCN(c2ccc3ncnc(Nc4ccc(Oc5ccn6ncnc6c5)c(C)c4)c3n2)[C@@H](C)C1` [Example 22], the results for the IC50 in assay [1], in assay [2] and in assay [4] were below 100 nM, 500 to 1000 nM and at least 1000 nM, respectively. In addition, the GI50 in assay [3] is below 100 nM.

As to `C=CC(=O)N1CCN(c2ccc3ncnc(Nc4ccc(Oc5ccn6ncnc6c5)c(C)c4)c3c2F)CC1` [Example 29], the IC50 in assay [1] is below 100 nM; in assay [4] it was at least 1000 nM. For the same compound, in assay [3], the GI50 was below 100 nM.

Turning to `C=C(F)C(=O)N1CC=C(c2ccc3ncnc(Nc4ccc(Oc5ccn6ncnc6c5)c(C)c4)c3n2)CC1` [Example 31], the IC50 in assay [1], in assay [2] and in assay [4] was at least 1000 nM throughout. Further, the GI50 in assay [3] is at least 1000 nM.

`C=CC(=O)N1CCN(c2ncc3ncnc(Nc4ccc(Oc5ccn6ncnc6c5)c(C)c4F)c3n2)C[C@H]1C` [Example 32]: the figures for the concentration for half-maximal inhibition (IC50) in assay [1] and in assay [2] were below 100 nM and 500 to 1000 nM, respectively. Moreover, the GI50 in assay [3] was below 100 nM.

Regarding `C=CC(=O)N1CCN(c2ncc3ncnc(Nc4cc(C)c(Oc5ccn6ncnc6c5)cc4F)c3n2)[C@H](C)C1` [Example 34], the IC50 in assay [1] is 100 to 500 nM; in assay [4] it was at least 1000 nM. Besides, in assay [3], the GI50 was in the range of 100 to 500 nM.

In the case of `C=CC(=O)N1CCN(c2ncc3ncnc(Nc4cc(C)c(Oc5ccn6ncnc6c5)cc4F)c3n2)[C@@H](C)C1` [Example 35], the IC50 in assay [1] was 100 to 500 nM; in assay [2], at least 1000 nM; in assay [4], at least 1000 nM. For the same compound, in assay [3], the GI50 is below 100 nM.

As for `C=CC(=O)N1CCN(c2ncc3ncnc(Nc4cc(C)c(Oc5ccn6ncnc6c5)cc4F)c3n2)C[C@@H]1C` [Example 36], the IC50 is 100 to 500 nM in assay [1], at least 1000 nM in assay [2] and at least 1000 nM in assay [4]. In assay [3], the GI50 is 100 to 500 nM.

As to `C=CC(=O)N1CC=C(c2ncc3ncnc(Nc4cc(C)c(Oc5ccn6ncnc6c5)cc4F)c3n2)CC1` [Example 38], the figures for the IC50 in assay [1] and in assay [4] were 100 to 500 nM and at least 1000 nM, respectively. Moreover, the GI50 in assay [3] was in the range of 100 to 500 nM.

As to `C=CC(=O)N1CC=C(c2ncc3ncnc(Nc4ccc(Oc5ccn6ncnc6c5)c(C)c4F)c3n2)C[C@@H]1C` [Example 42], the IC50 in assay [1] is below 100 nM; in assay [4], at least 1000 nM. The GI50 in assay [3] was below 100 nM.

Consider `C=CC(=O)N1C[C@@H](C)N(c2ncc3ncnc(Nc4ccc(Oc5ccn6ncnc6c5)c(C)c4F)c3n2)C[C@H]1C` [Example 44], for which the IC50 is 100 to 500 nM in assay [1] and at least 1000 nM in assay [4]. Moreover, the GI50 in assay [3] lay within 100 to 500 nM.

In the case of `C=CC(=O)N1CCN(c2ncc3ncnc(Nc4ccc(Oc5ccn6ncnc6c5)c(Cl)c4F)c3n2)C[C@H]1C` [Example 82], the half-inhibitory concentration (IC50) was 100 to 500 nM in assay [2] and below 100 nM in assay [4]. Moreover, the GI50 in assay [3] is below 100 nM.

`Cc1c(Oc2ccn3ncnc3c2)ccc(Nc2ncnc3cnc(C4=C[C@@H](C)N(C(=O)/C=C/CN(C)C)CC4)nc23)c1F` [Example 83]: the IC50 in assay [2] and in assay [4] was 100 to 500 nM throughout. In addition, the GI50 in assay [3] is below 100 nM.

Regarding `C=CC(=O)N1CCN(c2ncc3ncnc(Nc4ccc(Oc5ccc6c(c5)ncn6C)c(C)c4F)c3c2F)C[C@H]1C` [Example 84], the IC50 was 100 to 500 nM in assay [2] and 500 to 1000 nM in assay [4]. For the same compound, in assay [3], the GI50 is below 100 nM.

With `C=CC(=O)N1CC=C(c2ccc3ncnc(Nc4ccc(Oc5ccn6ncnc6c5)c(C)c4)c3n2)C[C@@H]1C` [Example 85], the IC50 in assay [2] and in assay [4] was at least 1000 nM in each case. Further, the GI50 in assay [3] is below 100 nM.

With `C=CC(=O)N1CC=C(c2ccc3ncnc(Nc4ccc(Oc5ccn6ncnc6c5)c(C)c4)c3n2)C[C@H]1C` [Example 86], the IC50 in assay [2] and in assay [4] was 100 to 500 nM throughout. Further, the GI50 in assay [3] is below 100 nM.

Consider `C=CC(=O)N1CCC(c2ncc3ncnc(Nc4ccc(Oc5ccn6ncnc6c5)c(C)c4)c3n2)=C[C@@H]1C` [Example 94], for which the IC50 was at least 1000 nM in assay [2] and 500 to 1000 nM in assay [4]. For the same compound, the GI50 in assay [3] is below 100 nM.

As for `C=CC(=O)N1CC=C(c2ncc3ncnc(Nc4ccc(Oc5ccn6ncnc6c5)c(C)c4)c3n2)C[C@@H]1C` [Example 95], the IC50 in assay [2] and in assay [4] was at least 1000 nM throughout. Besides, the GI50 in assay [3] was below 100 nM.

As for `C=CC(=O)N1CCC(c2ncc3ncnc(Nc4ccc(Oc5cc(C)n6ncnc6c5)c(C)c4F)c3n2)=C[C@@H]1C` [Example 96], the IC50 in assay [2] and in assay [4] was at least 1000 nM in each case. For the same compound, in assay [3], the GI50 was in the range of 100 to 500 nM.

In the case of `C=CC(=O)N1CCN(c2ncc3ncnc(Nc4ccc(Oc5ccn6ncnc6c5)c(C)c4F)c3n2)[C@H](C)[C@H]1C` [Example 100], the IC50 in assay [2] is 100 to 500 nM; in assay [4], at least 1000 nM. For the same compound, in assay [3], the GI50 is below 100 nM.
